{"source": "patent US20100216724A1", "about": "“USE OF F[…] (196-203 ) AS A […] AGENT” (priority 2007, published 2010)", "test_system": "drug-resistant Mycobacterium tuberculosis", "settings": "drug-resistant Mycobacterium tuberculosis growth; peptide 10 micrograms per ml; seven days", "note": "Where no end group is shown, it is not given here."}
{"substance": "SRNRCNDQ-NH2", "values": [{"measurement": "% inhibition", "result": 0.0, "unit": "%"}]}
